Test results published in article PMC4026281 (Journal of neurochemistry, 2012).
pIC50: −log10 of the molar value. Entries after “also recorded” stand apart in the source; their conditions may differ.

Legend:
[1] = system: nAChRs on SuSC GABAergic terminals (crude synaptosomes); assay type: biochemical, mouse
[2] = system: α6β2*-nAChR, crude striatal synaptosomes; assay type: biochemical, mouse
[3] = system: α6* nAChRs, crude rat striatal synaptosomes; settings: cited from earlier work
[4] = system: α6β2* and α3β2* nAChR; settings: cited from earlier work

## α-conotoxin PIA [α-CtxPIA]
[1]
  effect on ACh-evoked [^3H]-GABA release (abstract): did not affect [^3H]-GABA release
  inhibition of ACh-stimulated [^3H]-GABA release by 100nM α-CtxPIA: completely unable to inhibit
  inhibition of ACh-stimulated [^3H]-GABA release by α-CtxPIA: could not be reliably fit to an inhibition model; also recorded: no significant inhibition
[2]
  inhibition of ACh-stimulated [^3H]-dopamine release: 24.2 ± 3.3%
[3]
  reversibility of inhibition of DA release: slowly reversible
[3]; read-out: IC50, inhibition of DA release stimulated by nicotine or ACh
  pIC50: 8.83
[4]
  subtypes inhibited by the α-conotoxin: selective inhibitor of α6β2*-nAChR
